Reference: patent US20190117675A1, “Compositions And Methods To Treat And/Or Prevent Vision Disorders Of The Lens Of The Eye” (Helix Holding Company, priority 2014, published 2019)

Columns and labels:
[1] = tested on: various cataract-causing crystallin mutants; assay: Aggresome / intracellular aggregate formation of crystallin mutants in transfected cells (confocal microscopy); assay type: cell-based; conditions: 0-40 μM sterols in 2% DMSO, 2 h treatment then 12 h culture; lanosterol effect dose-dependent
Description: The effect of lanosterol or cholesterol on the aggresome formation of various crystallins was studied by transfecting the cells using plasmids containing various crystallin genes. The cells were cultivated for 24 h to enable efficient protein expression and aggresome formation. Then the cells were treated with 0-40 μM sterols in 2% DMSO. The cells treated with 2% DMSO were used as the control. After treatment for 2 h, the cells were moved to fresh DMEM medium containing 10% fetal bovine serum and further cultivated for 12 h. Then the cells were used for microscopy analysis.
The microscopy samples were prepared by washing the slips by phosphate buffered saline (PBS) three times. The cells were fixed with 4% paraformaldehyde for 40 min followed by three times washing with PBS. The cells were permeabilized with 0.1% Triton X-100 (Sigma) in PBS for 10 min and blocked with 5% normal goat serum in PBS for 1 h at 37° C. Immunostaining was carried out by adding mouse anti-Flag antibody (1:500) or anti-p62 antibody (1:200) in PBS buffer containing 5% normal goat serum and cultivated for 1 h at 37° C. Then the slips were washed three times with PBS, and further incubated with Alexa 649-conjugated goat anti-mouse IgG (1:250) for 1 h at ambient temperature. The nuclei were counterstained with Hoechst 33342. The mounted cells were analyzed using a Carl Zeiss LSM 710 confocal microscope.

[2] = tested on: dog eyes with cataracts; assay: Treatment of cataract lenses in dogs; assay type: in vivo; conditions: dog eyes treated with lanosterol for 6 weeks (intravitreal nanoparticles plus eye drops three times daily)
Description: Grading System of Dog Cataract • Grade 0: absence of opacification (no cataract); • Grade 1: a slight degree of opacification (incipient stage); • Grade 2: presence of diffuse opacification involving almost the entire lens (immature stage); • Grade 3: presence of extensive thick opacification involving the entire lens (mature stage)
To assess the effect of lanosterol treatment on cataract in live animals, left eye of dogs with bilateral cataract were treated for topical eye drops. The right eye of each animal was administered one drop of vehicle, 3 times a day so that the drop coated the eye. One drop of lanosterol was administered to the left eye of each animal in the same manner. Both eyes of some control animals were treated for vehicle. […] Each lens was recorded by photography. Degree of cataract was assessed using AREDS cataract grading system.
This study was approved by TACUC of Zhongshan Ophthalmic Center and West China Hospital. […] Degree of cataract was assessed by a blinded examiner and scored based on canine cataract stage, shown below. Improvements in lens clarity and transparency were quantified. […]
The mixture solution was then stirred for 2 h to allow the nanoparticles to form and the acetonitrile to evaporate. […] The loading yield of lanosterol was quantified by high performance liquid chromatography.

## CC(C)=CCC[C@@H](C)[C@H]1CC[C@@]2(C)C3=C(CC[C@]12C)[C@@]1(C)CC[C@H](O)C(C)(C)[C@@H]1CC3 [Lanosterol]
[1]
  intracellular aggregation of various cataract-causing crystallin mutants: significantly reduced intracellular aggregation
[2]
  cataract severity and lens clarity: reduced cataract severity and increased lens clarity
